In US7880002B2, “Substituted piperazinyl-pyrrolidine compounds useful as chemokine receptor antagonists” (Millennium Pharmaceuticals, Inc., priority 2004, dated 2011):

Target: T1, CCR1 (Homo sapiens, UniProt P32246)
T1 construct: a monocytic derived cell line that endogenously expresses CCR1; host or cells: THP-1 cells
T1 sequence (P32246 1-355): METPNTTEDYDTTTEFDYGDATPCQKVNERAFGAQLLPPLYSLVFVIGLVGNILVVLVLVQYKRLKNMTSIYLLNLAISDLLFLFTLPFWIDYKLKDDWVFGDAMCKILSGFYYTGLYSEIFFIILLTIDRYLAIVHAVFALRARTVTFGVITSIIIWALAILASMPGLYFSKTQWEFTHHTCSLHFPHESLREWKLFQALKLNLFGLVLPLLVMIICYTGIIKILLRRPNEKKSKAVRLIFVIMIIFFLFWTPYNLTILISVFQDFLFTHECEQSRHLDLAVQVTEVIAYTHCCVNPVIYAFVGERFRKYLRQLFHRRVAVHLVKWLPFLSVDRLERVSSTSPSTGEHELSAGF
Experiment: CCR1 inhibition (THP-1 FLIPR assay / THP-1 whole cell radioligand binding assay; the patent does not say which gave the values)
Assay type: cell-based
Settings: threshold list, less than 100 nm; compounds of Table 1; read-out: inhibitory activity
Description: The primary screening assay is a FLIPR® (Fluorometric Imaging Plate Reader, available from Molecular Devices Corporation, Sunnyvale, Calif.) assay using THP-1 cells (ATCC, Catalog No. TIB 202), a monocytic derived cell line that endogenously expresses CCR1.
The cells were resuspended at 1×10^6 cells/ml in dye loading media (growth media (RPMI+10% FBS (Fetal Bovine serum)+5.5×10^−5M 2-mercaptoethanol)+10 mM HEPES (N-2-hydroxyethylpiperazine-N′-2-ethane-sulfonic acid)+2.5 mM probenecid+fluo-3 (1:250)). The cells were incubated for 1 hour at 37° C. and then washed in FLIPR wash buffer (100 mL 10× HBSS (Hanks Buffered Saline Solution) (w/Ca++/Mg++)+20 mL 1M HEPES+1 g BSA+10 mL 250 mM probenecid+water (to make 1 L)) and plated at 50,000 cells/well in black/clear 384 well plates. The plates were transferred to FLIPR where the ability of different concentrations of compounds to inhibit RANTES induced calcium flux was assessed. Inhibition of the CCR1 response was reflected by a decrease of the fluorescence signal relative to the positive controls (RANTES alone).
THP-1 Whole Cell Radioligand Binding Assay
The cells were washed with PBS (phosphate buffered saline) and resuspended in binding buffer (10 mM HEPES pH 7.2, 1× HBSS (w/Ca^2+, Mg^2+) 0.5% BSA, 0.02% Na-azide) at 4×10^6 cells/ml (for 200, 000 cells/well). Cells were incubated with 0.1 to 0.2 nM [^125I]-labeled MIP-1α with or without unlabeled competitor (MIP-1α) or various concentrations of compounds for 60 minutes at room temperature. The assay was terminated by vacuum filtration through glass fiber filters (GF/B, Packard) which were presoaked in 0.3% polyethyleneimine. The filters were washed with wash buffer (10 mM HEPES, pH 7.2, 1 mM CaCl2, 5 mM MgCl2 0.5M NaCl), dried and the amount of bound radioactivity was determined by scintillation counting.

Row | Structure (SMILES) | IC50 [nM]
1 | O=C(c1ccc(Cl)cc1)N1CCN([C@H]2CN(c3nc(C(F)(F)F)nc4c(F)cccc34)C[C@@H]2O)CC1 (stereo in doubt) [Example 178, 4-[4-(4-chlorobenzoyl)piperazin-1-yl]-1-[8-fluoro-2-(trifluoromethyl)quinazolin-4-yl]pyrrolidin-3-ol] | < 100
2 | O=C(c1ccc(Cl)cc1)N1CCN([C@H]2CN(c3nc(C(F)(F)F)nc4cc(F)c(F)cc34)C[C@@H]2O)CC1 (stereo in doubt) [Example 179, 4-[4-(4-chlorobenzoyl)piperazin-1-yl]-1-[6,7-difluoro-2-(trifluoromethyl)quinazolin-4-yl]pyrrolidin-3-ol] | < 100
3 | COC(=O)c1ccc2nc(C(F)(F)F)nc(N3C[C@@H](O)[C@H](N4CCN(C(=O)c5ccc(Cl)cc5)CC4)C3)c2c1 (stereo in doubt) [Example 180, methyl 4-{3-[4-(4-chlorobenzoyl)piperazin-1-yl]-4-hydroxypyrrolidin-1-yl}-2-(trifluoromethyl)quinazoline-6-carboxylate] | < 100
4 | O=C(O)c1ccc2nc(C(F)(F)F)nc(N3C[C@@H](O)[C@H](N4CCN(C(=O)c5ccc(Cl)cc5)CC4)C3)c2c1 (stereo in doubt) [Example 181, 4-{3-[4-(4-chlorobenzoyl)piperazin-1-yl]-4-hydroxypyrrolidin-1-yl}-2-(trifluoromethyl)quinazoline-6-carboxylic acid] | < 100
5 | CCOc1ccc2nc(C(F)(F)F)nc(N3C[C@H](O)[C@@H](N4CCN(C(=O)c5ccc(Cl)cc5)CC4)C3)c2c1 (stereo in doubt) [Example 184, 4-[4-(4-chlorobenzoyl)piperazin-1-yl]-1-[6-ethoxy-2-(trifluoromethyl)quinazolin-4-yl]pyrrolidin-3-ol] | < 100
6 | Nc1ccc2nc(C(F)(F)F)nc(N3C[C@H](O)[C@@H](N4CCN(C(=O)c5ccc(Cl)cc5)CC4)C3)c2c1 (stereo in doubt) [Example 186, 1-[6-amino-2-(trifluoromethyl)quinazolin-4-yl]-4-[4-(4-chlorobenzoyl)piperazin-1-yl]pyrrolidin-3-ol] | < 100
7 | CN(C)c1ccc2nc(C(F)(F)F)nc(N3C[C@H](O)[C@@H](N4CCN(C(=O)c5ccc(Cl)cc5)CC4)C3)c2c1 (stereo in doubt) [Example 187, 4-[4-(4-chlorobenzoyl)piperazin-1-yl]-1-[6-(dimethylamino)-2-(trifluoromethyl)quinazolin-4-yl]pyrrolidin-3-ol] | < 100
8 | O=C(c1ccc(Cl)cc1)N1CCN([C@H]2CN(c3nc(C(F)(F)F)nc4ccc([N+](=O)[O-])cc34)C[C@@H]2O)CC1 (stereo in doubt) [Example 188, 4-[4-(4-chlorobenzoyl)piperazin-1-yl]-1-[6-nitro-2-(trifluoromethyl)quinazolin-4-yl]pyrrolidin-3-ol] | < 100
9 | COC(=O)Nc1ccc2nc(C(F)(F)F)nc(N3C[C@H](O)[C@@H](N4CCN(C(=O)c5ccc(Cl)cc5)CC4)C3)c2c1 (stereo in doubt) [Example 190, methyl [4-{3-[4-(4-chlorobenzoyl)piperazin-1-yl]-4-hydroxypyrrolidin-1-yl}-2-(trifluoromethyl)quinazolin-6-yl]carbamate] | < 100
10 | NC(=O)Nc1ccc2nc(C(F)(F)F)nc(N3C[C@H](O)[C@@H](N4CCN(C(=O)c5ccc(Cl)cc5)CC4)C3)c2c1 (stereo in doubt) [Example 194, N-[4-{3-[4-(4-chlorobenzoyl)piperazin-1-yl]-4-hydroxypyrrolidin-1-yl}-2-(trifluoromethyl)quinazolin-6-yl]urea] | < 100

Second part, the molecule after the results:

Row | IC50 [nM] | Structure (SMILES)
11 | < 100 | Cc1nc(C(F)(F)F)nc(N2C[C@@H](O)[C@H](N3CCN(C(=O)c4ccc(Cl)cc4)CC3)C2)c1C (stereo in doubt) [Example 119, 4-[4-(4-chlorobenzoyl)piperazin-1-yl]-1-[5,6-dimethyl-2-(trifluoromethyl)pyrimidin-4-yl]pyrrolidin-3-ol]
12 | < 100 | CCc1cc(C(F)(F)F)nc(N2C[C@@H](O)[C@H](N3CCN(C(=O)c4ccc(Cl)cc4)CC3)C2)n1 (stereo in doubt) [Example 121, 4-[4-(4-chlorobenzoyl)piperazin-1-yl]-1-[4-ethyl-6-(trifluoromethyl)pyrimidin-2-yl]pyrrolidin-3-ol]
13 | < 100 | CC(C)c1cc(C(F)(F)F)nc(N2C[C@@H](O)[C@H](N3CCN(C(=O)c4ccc(Cl)cc4)CC3)C2)n1 (stereo in doubt) [Example 123, 4-[4-(4-chlorobenzoyl)piperazin-1-yl]-1-[4-isopropyl-6-(trifluoromethyl)pyrimidin-2-yl]pyrrolidin-3-ol]
14 | < 100 | Cc1nc2ccccc2nc1N1C[C@H](O)[C@@H](N2CCN(C(=O)c3ccc(Cl)cc3)CC2)C1 (stereo in doubt) [Example 125, 4-[4-(4-chlorobenzoyl)piperazin-1-yl]-1-(3-methylquinoxalin-2-yl)pyrrolidin-3-ol]
15 | < 100 | O=C(c1ccc(Cl)cc1)N1CCN([C@H]2CN(c3cc(C(F)(F)F)c4ccccc4n3)C[C@@H]2O)CC1 (stereo in doubt) [Example 127, 4-[4-(4-chlorobenzoyl)piperazin-1-yl]-1-[4-(trifluoromethyl)quinolin-2-yl]pyrrolidin-3-ol]
16 | < 100 | O=C(c1ccc(Cl)cc1)N1CCN([C@H]2CN(c3ncnc4cc(C(F)(F)F)ccc34)C[C@@H]2O)CC1 (stereo in doubt) [Example 132, 4-[4-(4-chlorobenzoyl)piperazin-1-yl]-1-[7-(trifluoromethyl)quinazolin-4-yl]pyrrolidin-3-ol]
17 | < 100 | Cc1cc(N2C[C@@H](O)[C@H](N3CCN(C(=O)c4ccc(Cl)cc4)CC3)C2)nc(C(F)(F)F)n1 (stereo in doubt) [Example 146, 4-[4-(4-chlorobenzoyl)piperazin-1-yl]-1-[6-methyl-2-(trifluoromethyl)pyrimidin-4-yl]pyrrolidin-3-ol]
18 | < 100 | O=C(c1ccc(Cl)cc1)N1CCN([C@@H]2CN(c3ncnc4cc(Cl)c(F)cc34)C[C@H]2O)CC1 (stereo in doubt) [Example 161, 4-[4-(4-chlorobenzoyl)piperazin-1-yl]-1-(7-chloro-6-fluoroquinazolin-4-yl)pyrrolidin-3-ol]
19 | < 100 | COc1ccc2nc(C(F)(F)F)nc(N3C[C@H](O)[C@@H](N4CCN(C(=O)c5ccc(Cl)cc5)CC4)C3)c2c1 (stereo in doubt) [Example 165, 4-[4-(4-chlorobenzoyl)piperazin-1-yl]-1-[6-methoxy-2-(trifluoromethyl)quinazolin-4-yl]pyrrolidin-3-ol]
20 | < 100 | O=C(c1ccc(Cl)cc1)N1CCN([C@H]2CN(c3nc(C(F)(F)F)nc4cc(F)ccc34)C[C@@H]2O)CC1 (stereo in doubt) [Example 171, 4-[4-(4-chlorobenzoyl)piperazin-1-yl]-1-[7-fluoro-2-(trifluoromethyl)quinazolin-4-yl]pyrrolidin-3-ol]
21 | < 100 | O=C(c1ccc(Cl)cc1)N1CCN([C@H]2CN(c3nc(C(F)(F)F)nc4cccc(F)c34)C[C@@H]2O)CC1 (stereo in doubt) [Example 172, 4-[4-(4-chlorobenzoyl)piperazin-1-yl]-1-[5-fluoro-2-(trifluoromethyl)quinazolin-4-yl]pyrrolidin-3-ol]
22 | < 100 | O=C(c1ccc(Cl)cc1)N1CCN([C@H]2CN(c3nc(C(F)(F)F)nc4ccc(Cl)cc34)C[C@@H]2O)CC1 (stereo in doubt) [Example 173, 4-[4-(4-chlorobenzoyl)piperazin-1-yl]-1-[6-chloro-2-(trifluoromethyl)quinazolin-4-yl]pyrrolidin-3-ol]
23 | < 100 | Cc1ccc2nc(C(F)(F)F)nc(N3C[C@H](O)[C@@H](N4CCN(C(=O)c5ccc(Cl)cc5)CC4)C3)c2c1 (stereo in doubt) [Example 174, 4-[4-(4-chlorobenzoyl)piperazin-1-yl]-1-[6-methyl-2-(trifluoromethyl)quinazolin-4-yl]pyrrolidin-3-ol]
24 | < 100 | O=C(c1ccc(Cl)cc1)N1CCN([C@H]2CN(c3nc(C(F)(F)F)nc4cccc(Cl)c34)C[C@@H]2O)CC1 (stereo in doubt) [Example 176, 4-[4-(4-chlorobenzoyl)piperazin-1-yl]-1-[5-chloro-2-(trifluoromethyl)quinazolin-4-yl]pyrrolidin-3-ol]
